Where a name gives a salt, the structure may show the parent alone. Read-outs that look alike come from different tables or passages of the source.
Legend:
Type in all cases: cell-based
S. aureus ATCC 25923 = experiment: MIC, CLSI broth microdilution (Table 1); conditions: Staphylococcus aureus
[1] = test system: S. aureus ATCC 43300 (MRSA, FQ-S); experiment: MIC, CLSI broth microdilution (Table 1); conditions: Staphylococcus aureus, read-out: MIC S. aureus ATCC 43300 (MRSA, FQ-S)
[2] = test system: S. aureus BAA-1720 (MRSA, FQ-R); experiment: MIC, CLSI broth microdilution (Table 1); conditions: Staphylococcus aureus, read-out: MIC S. aureus BAA-1720 (MRSA, FQ-R)
E. faecium ATCC 19434 = experiment: MIC, CLSI broth microdilution (Table 1); conditions: Enterococcus faecium
E. faecalis ATCC 29212 = experiment: MIC, CLSI broth microdilution (Table 1); conditions: Enterococcus faecalis
S. pneumonia ATCC 49619 = experiment: MIC, CLSI broth microdilution (Table 1); conditions: Streptococcus pneumoniae
E. coli ATCC 25922 = experiment: MIC, CLSI broth microdilution (Table 2); conditions: Escherichia coli
A. baumannii ATCC 19606 = experiment: MIC, CLSI broth microdilution (Table 2); conditions: Acinetobacter baumannii
K. pneumoniae ATCC 33495 = experiment: MIC, CLSI broth microdilution (Table 2); conditions: Klebsiella pneumoniae
H. influenzae ATCC 49247 = experiment: MIC, CLSI broth microdilution (Table 2); conditions: Haemophilus influenzae
[3] = test system: S. maltophilia ATCC 17677; experiment: MIC, CLSI broth microdilution (Table 2); conditions: Stenotrophomonas maltophilia
[4] = test system: Bacillus anthracis Ames strain; experiment: microbe, parasite or virus in culture
[5] = test system: Brucella abortus ATCC 23448; experiment: microbe, parasite or virus in culture; conditions: ATCC23448
[6] = test system: Burkholderia mallei ATCC 23344; experiment: microbe, parasite or virus in culture; conditions: ATCC23344
[7] = test system: Burkholderia pseudomallei ATCC 23343; experiment: microbe, parasite or virus in culture; conditions: ATCC23343
[8] = test system: Francisella tularensis Schu S4; experiment: microbe, parasite or virus in culture; conditions: SCHUS4
Yersinia pestis C092 = experiment: microbe, parasite or virus in culture
P. aeruginosa ATCC 27853 = experiment: MIC, CLSI broth microdilution (Table 2); conditions: Pseudomonas aeruginosa
[9] = ATCC25923, read-out: MIC S. aureus ATCC 25923
[10] = ATCC19434, read-out: MIC E. faecium ATCC 19434
[11] = ATCC29212, read-out: MIC E. faecalis ATCC 29212
[12] = ATCC49619, read-out: MIC S. pneumonia ATCC 49619
[13] = ATCC25922, read-out: MIC E. coli ATCC 25922
[14] = ATCC19606, read-out: MIC A. baumannii B. ATCC 19606
[15] = ATCC33495, read-out: MIC K. pneumoniae ATCC 33495
[16] = ATCC49247, read-out: MIC H. influenzae ATCC 49247
[17] = ATCC17677, read-out: MIC S. maltophilia ATCC 17677
[18] = ATCC25923, Gram positive, MHB, 37° C., 16-20 hours, read-out: MIC S. aureus ATCC 25923
[19] = Gram positive, MHB, 37° C., 16-20 hours
[20] = ATCC19434, Gram positive, MHB, 37° C., 16-20 hours, read-out: MIC E. faecium ATCC 19434
[21] = ATCC29212, Gram positive, MHB, 37° C., 16-20 hours, read-out: MIC E. faecalis ATCC 29212
[22] = ATCC49619, Gram positive, MHB, 37° C., 16-20 hours, read-out: MIC S. pneumonia ATCC 49619
[23] = ATCC25922, Gram negative, MHB, 37° C., 16-20 hours, read-out: MIC E. coli ATCC 25922
[24] = ATCC19606, Gram negative, MHB, 37° C., 16-20 hours, read-out: MIC A. baumannii B. ATCC 19606
[25] = ATCC27853, Gram negative, MHB, 37° C., 16-20 hours, read-out: MIC P. aeruginosa ATCC 27853
[26] = ATCC33495, Gram negative, MHB, 37° C., 16-20 hours, read-out: MIC K. pneumoniae ATCC 33495
[27] = ATCC49247, Gram negative, MHB, 37° C., 16-20 hours, read-out: MIC H. influenzae ATCC 49247
[28] = ATCC17677, Gram negative, MHB, 37° C., 16-20 hours, read-out: MIC S. maltophilia ATCC 17677

SMILES	MIC (S. aureus ATCC 25923; [9]) [µg/mL]	MIC [1] [µg/mL]	MIC [2] [µg/mL]	MIC (E. faecium ATCC 19434; [10]) [µg/mL]	MIC (E. faecalis ATCC 29212; [11]) [µg/mL]	MIC (S. pneumonia ATCC 49619; [12]) [µg/mL]	MIC (E. coli ATCC 25922; [13]) [µg/mL]	MIC (A. baumannii ATCC 19606; [14]) [µg/mL]	MIC (S. aureus ATCC 25923; [18]) [µg/mL]	MIC [1, 19] [µg/mL]	MIC [2, 19] [µg/mL]	MIC (E. faecium ATCC 19434; [20]) [µg/mL]	MIC (E. faecalis ATCC 29212; [21]) [µg/mL]	MIC (S. pneumonia ATCC 49619; [22]) [µg/mL]	MIC (E. coli ATCC 25922; [23]) [µg/mL]	MIC (A. baumannii ATCC 19606; [24]) [µg/mL]	MIC (P. aeruginosa ATCC 27853; [25]) [µg/mL]	MIC (K. pneumoniae ATCC 33495; [26]) [µg/mL]	MIC (H. influenzae ATCC 49247; [27]) [µg/mL]	MIC [3, 28] [µg/mL]	other results
Cc1c(-c2ccc(N)c(F)c2)c(F)cn2c(=O)c(C(=O)O)cc(C3CC3)c12 [Example 1 K salt, 8-(4-amino-3-fluoro-phenyl)-1-cyclopropyl-7-fluoro-9-methyl-4-oxo-4H-quinolizine-3-carboxylic acid]	≤ 0.004	≤ 0.004	0.125	0.25	0.008	0.016	0.032 to 0.064	0.064													MIC (K. pneumoniae ATCC 33495; [15]): 0.125 µg/mL; MIC (H. influenzae ATCC 49247; [16]): ≤ 0.004 µg/mL; MIC [3, 17]: 0.125 µg/mL; MIC [4]: 0.004 µg/mL; MIC [5]: 0.031 µg/mL; MIC [6]: 0.25 to 0.5 µg/mL; MIC [7]: 0.5 µg/mL; MIC [8]: 0.016 µg/mL; MIC (Yersinia pestis C092): 0.031 µg/mL
Cc1c(-c2cc(F)c(N)c(F)c2)ccn2c(=O)c(C(=O)O)cc(C3CC3)c12 [Example 39 K salt, 8-(4-amino-3,5-difluoro-phenyl)-1-cyclopropyl-9-methyl-4-oxo-4H-quinolizine-3-carboxylic acid]	≤ 0.004	≤ 0.004	0.125	0.25	0.016	0.032	0.064	0.064													MIC (P. aeruginosa ATCC 27853; ATCC27853, read-out: MIC P. aeruginosa ATCC 27853): 2 µg/mL; MIC (K. pneumoniae ATCC 33495; [15]): 0.125 µg/mL; MIC (H. influenzae ATCC 49247; [16]): ≤ 0.004 µg/mL; MIC [3, 17]: 0.064 µg/mL
CNc1ccc(-c2ccn3c(=O)c(C(=O)O)cc(C4CC4)c3c2C)cc1 [Example 15 K salt, 1-cyclopropyl-9-methyl-8-(4-(methylamino)-phenyl)-4-oxo-4H-quinolizine-3-carboxylic acid]									0.016	0.016	1	> 8	0.032	0.064	0.125	0.5 to 1	> 8	1	0.016 to 0.032	0.5	
Cc1ccc(-c2ccn3c(=O)c(C(=O)O)cc(C4CC4)c3c2C)cc1 [Example 33 K salt, 1-cyclopropyl-8-(4-methyl-phenyl)-9-methyl-4-oxo-4H-quinolizine-3-carboxylic acid]									0.016 to 0.032	0.016	0.5	0.5 to 1	0.064	0.25	0.25	0.5	2	0.5 to 1	0.016 to 0.032	0.5	
Cc1cc(-c2ccn3c(=O)c(C(=O)O)cc(C4CC4)c3c2C)c(Cl)cc1N [Example 30 K salt, 1-cyclopropyl-8-(4-amino-2-chloro-5-methyl-phenyl)-9-methyl-4-oxo-4H-quinolizine-3-carboxylic acid]									0.064	0.032	1	2	0.064	0.25	1	1 to 2	> 8	2 to 4	0.064	4	
Cc1c(-c2cccc(F)c2)ccn2c(=O)c(C(=O)O)cc(C3CC3)c12 [Example 10 K salt, 1-cyclopropyl-8-(3-fluoro-phenyl)-9-methyl-4-oxo-4H-quinolizine-3-carboxylic acid]									0.008	0.008	0.5	0.5	0.032	0.125	0.125	0.25	2	0.25	0.008	0.25 to 0.5	

From patent US20150141435A1, “2-PYRIDONE ANTIMICROBIAL COMPOSITIONS” (Emergent BioSolutions, priority 2010, published 2015)
